Assay results from patent publication US7973061B2, “Anaplastic lymphoma kinase modulators and methods of use” (Exelixis, Inc., priority 2004, dated 2011).

Biological target: T1, ALK (baculovirus expressed human ALK kinase domain F1098-K1410) (Homo sapiens, UniProt Q9UM73)
T1 construct: human ALK kinase domain F1098-K1410; made in house
Assay: biochemical
Settings: 1 μM ATP, 4 μM poly-AEKY, 12 nM ALK, 2 hours at ambient temperature; read-out: ALK IC50
Outline: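 Baculovirus-expressed human ALK kinase domain (F1098-K1410) was run in a luciferase-coupled chemiluminescent format, with ATP near its KM. After 2 h at ambient temperature, remaining ATP was read by luciferase-luciferin luminescence. IC50 came from 10-point dose-response curves fitted to a four-parameter equation with Hill slope.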

T1 sequence (Q9UM73 1098-1410): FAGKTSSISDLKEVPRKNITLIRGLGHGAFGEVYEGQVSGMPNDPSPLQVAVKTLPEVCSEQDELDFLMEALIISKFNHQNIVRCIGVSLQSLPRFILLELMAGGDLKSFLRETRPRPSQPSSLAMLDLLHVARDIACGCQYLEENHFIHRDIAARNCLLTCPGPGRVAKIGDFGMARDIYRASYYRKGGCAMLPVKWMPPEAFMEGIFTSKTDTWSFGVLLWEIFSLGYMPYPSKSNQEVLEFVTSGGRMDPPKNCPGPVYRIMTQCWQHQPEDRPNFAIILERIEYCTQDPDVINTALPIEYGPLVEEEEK

**Q.** `O=C(C/C=C/c1ccccc1)NCc1nc(C(=O)NCCc2ccccc2F)cs1` [Entry 276, N-[2-(2-fluorophenyl)ethyl]-2-({[(3E)-4-phenylbut-3-enoyl]amino}methyl)-1,3-thiazole-4-carboxamide] was tested. Which IC50 did it give?
**A.** 500 to 2000 nM

**Q.** `COc1ccccc1CNC(=O)c1csc(CNC(=O)COc2ccc(Br)cc2)n1` [Entry 277, 2-[({[(4-bromophenyl)oxy]acetyl}amino)methyl]-N-{[2-(methyloxy)phenyl]methyl}-1,3-thiazole-4-carboxamide] was tested. Which IC50 did it give?
**A.** 500 to 2000 nM

**Q.** Which IC50 does the source give for `CC(C)(C)OC(=O)NC1CCN(C(=O)c2csc(CNC(=O)COc3ccc(OC(F)(F)F)cc3)n2)C1` (stereo not shown) [Entry 278, 1,1-dimethylethyl (1-{[2-({[({4-[(trifluoromethyl)oxy]phenyl}oxy)acetyl]amino}methyl)-1,3-thiazol-4-yl]carbonyl}pyrrolidin-3-yl)carbamate] here?
**A.** 500 to 2000 nM

**Q.** `O=C(COc1ccc(OC(F)(F)F)cc1)NCc1nc(C(=O)N2CCN(c3ccccn3)CC2)cs1` [Entry 279, N-({4-[(4-pyridin-2-ylpiperazin-1-yl)carbonyl]-1,3-thiazol-2-yl}methyl)-2-({4-[(trifluoromethyl)oxy]phenyl}oxy)acetamide] was tested. Which IC50 did it give?
**A.** 500 to 2000 nM

**Q.** For `O=C(COc1ccc(OC(F)(F)F)cc1)NCc1nc(C(=O)NCC(F)(F)F)cs1` [Entry 280, N-(2,2,2-trifluoroethyl)-2-({[({4-[(trifluoromethyl)oxy]phenyl}oxy)acetyl]amino}methyl)-1,3-thiazole-4-carboxamide], which IC50 is on record?
**A.** 500 to 2000 nM

**Q.** How did the IC50 turn out when `CC(=O)NCCNC(=O)c1csc(CNC(=O)COc2ccc(OC(F)(F)F)cc2)n1` [Entry 281, N-[2-(acetylamino)ethyl]-2-({[({4-[(trifluoromethyl)oxy]phenyl}oxy)acetyl]amino}methyl)-1,3-thiazole-4-carboxamide] was run?
**A.** 500 to 2000 nM

**Q.** How did the IC50 turn out when `CC1CC(C)CN(C(=O)c2csc(CNC(=O)COc3ccc(OC(F)(F)F)cc3)n2)C1` (stereo not shown) [Entry 282, N-({4-[(3,5-dimethylpiperidin-1-yl)carbonyl]-1,3-thiazol-2-yl}methyl)-2-({4-[(trifluoromethyl)oxy]phenyl}oxy)acetamide] was run?
**A.** 500 to 2000 nM

**Q.** For `CCOC(=O)N1CCC(NC(=O)c2csc(CNC(=O)COc3ccc(OC(F)(F)F)cc3)n2)CC1` [Entry 283, ethyl 4-({[2-({[({4-[(trifluoromethyl)oxy]phenyl}oxy)acetyl]amino}methyl)-1,3-thiazol-4-yl]carbonyl}amino)piperidine-1-carboxylate], which IC50 is on record?
**A.** 500 to 2000 nM

**Q.** Which IC50 does the source give for `COc1ccccc1CNC(=O)c1csc(CNC(=O)C/C=C/c2ccccc2)n1` [Entry 284, N-{[2-(methyloxy)phenyl]methyl}-2-({[(3E)-4-phenylbut-3-enoyl]amino}methyl)-1,3-thiazole-4-carboxamide] here?
**A.** 500 to 2000 nM

**Q.** `O=C(COc1ccc(OC(F)(F)F)cc1)NCc1nc(C(=O)NCc2ccncc2)cs1` [Entry 285, N-(pyridin-4-ylmethyl)-2-({[({4-[(trifluoromethyl)oxy]phenyl}oxy)acetyl]amino}methyl)-1,3-thiazole-4-carboxamide] was tested. Which IC50 did it give?
**A.** 500 to 2000 nM

**Q.** Which IC50 does the source give for `O=C(COc1ccc(OC(F)(F)F)cc1)NCc1nc(C(=O)NCCCN2CCCC2=O)cs1` [Entry 286, N-[3-(2-oxopyrrolidin-1-yl)propyl]-2-({[({4-[(trifluoromethyl)oxy]phenyl}oxy)acetyl]amino}methyl)-1,3-thiazole-4-carboxamide] here?
**A.** 500 to 2000 nM

**Q.** With `COCCNC(=O)c1csc(CNC(=O)COc2ccc(OC(F)(F)F)cc2)n1` [Entry 287, N-[2-(methyloxy)ethyl]-2-({[({4-[(trifluoromethyl)oxy]phenyl}oxy)acetyl]amino}methyl)-1,3-thiazole-4-carboxamide] as the compound, how does the IC50 read?
**A.** 500 to 2000 nM

**Q.** For `Cc1ccccc1CNC(=O)c1coc(CNC(=O)COc2ccc(OC(F)(F)F)cc2)n1` [Entry 288, N-[(2-methylphenyl)methyl]-2-({[({4-[(trifluoromethyl)oxy]phenyl}oxy)acetyl]amino}methyl)-1,3-oxazole-4-carboxamide], which IC50 is on record?
**A.** 500 to 2000 nM

**Q.** How did the IC50 turn out when `CC1CCCN(C(=O)c2csc(CNC(=O)COc3ccc(OC(F)(F)F)cc3)n2)C1` (stereo not shown) [Entry 289, N-({4-[(3-methylpiperidin-1-yl)carbonyl]-1,3-thiazol-2-yl}methyl)-2-({4-[(trifluoromethyl)oxy]phenyl}oxy)acetamide] was run?
**A.** 500 to 2000 nM

**Q.** For `O=C(COc1ccc(OC(F)(F)F)cc1)NCc1nc(C(=O)NCCN2CCCCC2)cs1` [Entry 290, N-(2-piperidin-1-ylethyl)-2-({[({4-[(trifluoromethyl)oxy]phenyl}oxy)acetyl]amino}methyl)-1,3-thiazole-4-carboxamide], which IC50 is on record?
**A.** 500 to 2000 nM

**Q.** `O=C(COc1ccc(OC(F)(F)F)cc1)NCc1nc(C(=O)NCc2ccc(Cl)c(Cl)c2)co1` [Entry 291, N-[(3,4-dichlorophenyl)methyl]-2-({[({4-[(trifluoromethyl)oxy]phenyl}oxy)acetyl]amino}methyl)-1,3-oxazole-4-carboxamide] was tested. Which IC50 did it give?
**A.** 500 to 2000 nM

**Q.** How did the IC50 turn out when `O=C(COc1ccc(OC(F)(F)F)cc1)NCc1nc(C(=O)NCc2ccc(F)cc2)co1` [Entry 292, N-[(4-fluorophenyl)methyl]-2-({[({4-[(trifluoromethyl)oxy]phenyl}oxy)acetyl]amino}methyl)-1,3-oxazole-4-carboxamide] was run?
**A.** 500 to 2000 nM

**Q.** For `O=C(COc1ccc(OC(F)(F)F)cc1)NCc1nc(C(=O)NC2CCCc3ccccc32)co1` (stereo not shown) [Entry 293, N-(1,2,3,4-tetrahydronaphthalen-1-yl)-2-({[({4-[(trifluoromethyl)oxy]phenyl}oxy)acetyl]amino}methyl)-1,3-oxazole-4-carboxamide], which IC50 is on record?
**A.** 500 to 2000 nM

**Q.** Which IC50 does the source give for `O=C(COc1ccc(OC(F)(F)F)cc1)NCc1nc(C(=O)N2CCC3CCCCC3C2)cs1` (stereo not shown) [Entry 294, N-{[4-(octahydroisoquinolin-2(1H)-ylcarbonyl)-1,3-thiazol-2-yl]methyl}-2-({4-[(trifluoromethyl)oxy]phenyl}oxy)acetamide] here?
**A.** 500 to 2000 nM

**Q.** `CN(C(=O)OC(C)(C)C)C1CCN(C(=O)c2csc(CNC(=O)COc3ccc(OC(F)(F)F)cc3)n2)C1` (stereo not shown) [Entry 295, 1,1-dimethylethyl methyl(1-{[2-({[({4-[(trifluoromethyl)oxy]phenyl}oxy)acetyl]amino}methyl)-1,3-thiazol-4-yl]carbonyl}pyrrolidin-3-yl)carbamate] was tested. Which IC50 did it give?
**A.** 500 to 2000 nM

**Q.** With `O=C(COc1ccc(OC(F)(F)F)cc1)NCc1nc(C(=O)NCCc2ccccn2)co1` [Entry 296, N-(2-pyridin-2-ylethyl)-2-({[({4-[(trifluoromethyl)oxy]phenyl}oxy)acetyl]amino}methyl)-1,3-oxazole-4-carboxamide] as the compound, how does the IC50 read?
**A.** 500 to 2000 nM

**Q.** Which IC50 does the source give for `O=C(COc1ccc(OC(F)(F)F)cc1)NCc1nc(C(=O)NCc2ccccc2)co1` [Entry 297, N-(phenylmethyl)-2-({[({4-[(trifluoromethyl)oxy]phenyl}oxy)acetyl]amino}methyl)-1,3-oxazole-4-carboxamide] here?
**A.** 500 to 2000 nM

**Q.** With `O=C(NCc1nc(C(=O)NCCc2cccc(Cl)c2)cs1)OCc1ccc(OC(F)(F)F)cc1` [Entry 298, {4-[(trifluoromethyl)oxy]phenyl}methyl {[4-({[2-(3-chlorophenyl)ethyl]amino}carbonyl)-1,3-thiazol-2-yl]methyl}carbamate] as the compound, how does the IC50 read?
**A.** 500 to 2000 nM

**Q.** How did the IC50 turn out when `O=C(COc1ccc(OC(F)(F)F)cc1)NCc1cc(C(=O)NCCc2cccc(Cl)c2)no1` [Entry 299, N-[2-(3-chlorophenyl)ethyl]-5-({[({4-[(trifluoromethyl)oxy]phenyl}oxy)acetyl]amino}methyl)isoxazole-3-carboxamide] was run?
**A.** > 2000 nM

**Q.** `NCc1nc(C(=O)NCCc2cccc(Cl)c2)cs1` [Entry 300, 2-(aminomethyl)-N-[2-(3-chlorophenyl)ethyl]-1,3-thiazole-4-carboxamide] was tested. Which IC50 did it give?
**A.** > 2000 nM

**Q.** For `CO[C@@H]1[C@@H](C)/C=C(\C)[C@H](OC(N)=O)[C@@H](OC)/C=C\C=C(/C)C(=O)NC2=CC(=O)C=C(C2=O)[C@H](OC)[C@@H](C)C[C@H]1OC` [Entry 301, (4E,6Z,8S,9S,10E,12S,13R,14R,16S,17R)-4,10,12,16-tetramethyl-8,13,14,17-tetrakis(methyloxy)-3,20,22-trioxo-2-azabicyclo[16.3.1]docosa-1(21),4,6,10,18-pentaen-9-yl carbamate, reference compound], which IC50 is on record?
**A.** > 2000 nM

**Q.** Which IC50 does the source give for `O=C(COc1ccc(OC(F)(F)F)cc1)NCc1nc(C(=O)O)cs1` [Entry 302, 2-({[({4-[(trifluoromethyl)oxy]phenyl}oxy)acetyl]amino}methyl)-1,3-thiazole-4-carboxylic acid] here?
**A.** > 2000 nM

**Q.** `COc1cccc(CNC(=O)c2csc(CN)n2)c1OC` [Entry 303, 2-(aminomethyl)-N-{[2,3-bis(methyloxy)phenyl]methyl}-1,3-thiazole-4-carboxamide] was tested. Which IC50 did it give?
**A.** > 2000 nM

**Q.** For `COc1ccccc1CNC(=O)c1csc(CN)n1` [Entry 304, 2-(aminomethyl)-N-{[2-(methyloxy)phenyl]methyl}-1,3-thiazole-4-carboxamide], which IC50 is on record?
**A.** > 2000 nM

**Q.** Which IC50 does the source give for `NCc1nc(C(=O)NCCc2ccccc2F)cs1` [Entry 305, 2-(aminomethyl)-N-[2-(2-fluorophenyl)ethyl]-1,3-thiazole-4-carboxamide] here?
**A.** > 2000 nM

**Q.** With `O=C(COc1ccc(OC(F)(F)F)cc1)NCc1nc(C(=O)NCCc2cccc(Cl)c2)c[nH]1` [Entry 306, N-[2-(3-chlorophenyl)ethyl]-2-({[({4-[(trifluoromethyl)oxy]phenyl}oxy)acetyl]amino}methyl)-1H-imidazole-4-carboxamide] as the compound, how does the IC50 read?
**A.** > 2000 nM

**Q.** `NCc1nc(C(=O)NCCc2cccc(Cl)c2)co1` [Entry 307, 2-(aminomethyl)-N-[2-(3-chlorophenyl)ethyl]-1,3-oxazole-4-carboxamide] was tested. Which IC50 did it give?
**A.** > 2000 nM

**Q.** With `O=C(COc1ccc(OC(F)(F)F)cc1)NCc1nc(C(=O)O)co1` [Entry 308, 2-({[({4-[(trifluoromethyl)oxy]phenyl}oxy)acetyl]amino}methyl)-1,3-oxazole-4-carboxylic acid] as the compound, how does the IC50 read?
**A.** > 2000 nM

**Q.** How did the IC50 turn out when `O=C(NCCc1cccc(Cl)c1)c1csc(CNCc2ccc(OC(F)(F)F)cc2)n1` [Entry 309, N-[2-(3-chlorophenyl)ethyl]-2-{[({4-[(trifluoromethyl)oxy]phenyl}methyl)amino]methyl}-1,3-thiazole-4-carboxamide] was run?
**A.** > 2000 nM
